The test system of assay [1] is U-87 MG human glioblastoma. The experiment in a line: U87 MG CCK-8 proliferation assay. The format is cell-based. The note with it: Homo sapiens, U-87 MG, 72 h, U-87 MG cells, read-out: U87MG CCK-8. An outline of the steps: (§1)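 Inhibition is derived from CCK-8 absorbance of compound-treated cells relative to DMSO-treated cells, after subtracting a cell-free medium/DMSO background. Test concentrations span 20 μM down to 1.02 nM in 3-fold steps, and lines are cultured as ATCC recommends.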
In general terms: Tetrazolium dyes change colour on reduction, which living cells bring about.

A further assay concerns the target T1, HSP90α protein (Homo sapiens, UniProt P07900).
T1 construct: purchased BPS Bioscience #50298
As to the kind of experiment: HSP90α-binding FP (BODIPY) assay. The note with it: FP competition with BODIPY-labeled RNK04010. As to the method: Binding of test compounds to HSP90α protein was measured by fluorescent polarization (FP) using the HSP90α (N-terminal) Assay Kit (BPS Bioscience, #50298), following the manufacturer's instructions, except as noted. Fluorescently labeled HSP90-binding compounds, either the provided FITC-geldanamycin (5 nM final concentration) or RNK04010, a triazolone-based HSP90 binding small molecule labeled with BODIPY through a piperazine-phenyl linker (5 nM final concentration) were employed. A 2.5-fold serial dilution of each test compound ranging from 20 μM to 5.2 nM was assayed for binding to HSP90α. After the final step of adding HSP90α protein to each assay well, plates were mixed by brief shaking, incubated at 25° C. for 120 min for FITC-geldanamycin or 300 min for RNK04010, and fluorescence was measured using a PerkinElmer EnVision Plate Reader.

Assay [2] deals with MV-4-11 human acute myeloid leukemia. As to the kind of experiment: MV-4-11 CCK-8 proliferation assay. The format is cell-based. To be noted: Homo sapiens, MV4-11; MV-4-11 cells, 72 hr. The method in brief:
as §1

Experimental findings from US20240124460A1, “METHODS AND COMPOSITIONS FOR TARGETED PROTEIN DEGRADATION” (Ranok Therapeutics (Hangzhou) Co. Ltd., priority 2020, published 2024) are described below.

A word on the IC50: it is the concentration at which inhibition is half-maximal. A higher IC50 goes with weaker potency.

As to `CCOc1cc(N2CCC(C(=O)N3CCC(CN4CCN(Cc5ccc(-n6c(O)nnc6-c6cc(CC)c(O)cc6O)cc5F)CC4)CC3)CC2)ccc1Nc1ncc2c(n1)N(C)c1ccccc1C(=O)N2C` [Compound 019, 2-((2-ethoxy-4-(4-(4-((4-(4-(3-(5-ethyl-2,4-dihydroxyphenyl)-5-hydroxy-4H-1,2,4-triazol-4-yl)-2-fluorobenzyl)piperazin-1-yl)methyl)piperidine-1-carbonyl)piperidin-1-yl)phenyl)amino)-5,11-dimethyl-5,11-dihydro-6H-benzo[e]pyrimido[5,4-b][1,4]diazepin-6-one], the values for the EC50 in assay [1] and in assay [2] were 0.1 to 1 µM and less than 0.1 µM, respectively. Also, on HSP90α protein, the half-maximal inhibitory concentration (IC50) fell in the range of 0.1 to 1 µM.
Turning to `CCCc1cc(-c2nnc(O)n2-c2ccc(CN3CCN(CC4CCN(C(=O)C5CCN(c6ccc(Nc7ncc8c(n7)N(C)c7ccccc7C(=O)N8C)c(OCC)c6)CC5)CC4)CC3)cc2)c(O)cc1O` [Compound 020, 2-((4-(4-(4-((4-(4-(3-(2,4-dihydroxy-5-propylphenyl)-5-hydroxy-4H-1,2,4-triazol-4-yl)benzyl)piperazin-1-yl)methyl)piperidine-1-carbonyl)piperidin-1-yl)-2-ethoxyphenyl)amino)-5,11-dimethyl-5,11-dihydro-6H-benzo[e]pyrimido[5,4-b][1,4]diazepin-6-one], the EC50 in assay [1] and in assay [2] was 0.1 to 1 µM throughout. Further, the IC50 at HSP90α protein was in the range of 0.1 to 1 µM.
`CCOc1cc(N2CCC(C(=O)N3CCC(CN4CCN(Cc5ccc(-n6c(C(=O)NC(C)C(F)(F)F)nnc6-c6cc(CC)c(O)cc6O)cc5)CC4)CC3)CC2)ccc1Nc1ncc2c(n1)N(S(C)(=O)=O)c1ccccc1C(=O)N2C` (stereo not shown) [Compound 107, 4-(4-((4-((1-(1-(3-ethoxy-4-((5-methyl-11-(methylsulfonyl)-6-oxo-6,11-dihydro-5H-benzo[e]pyrimido[5,4-b][1,4]diazepin-2-yl)amino)phenyl)piperidine-4-carbonyl)piperidin-4-yl)methyl)piperazin-1-yl)methyl)phenyl)-5-(5-ethyl-2,4-dihydroxyphenyl)-N-(1,1,1-trifluoropropan-2-yl)-4H-1,2,4-triazole-3-carboxamide] showed an IC50 at HSP90α protein of 0.1 to 1 µM. Further, in assay [2], the EC50 was less than 0.1 µM.
Consider `CCOc1cc(N2CCC(C(=O)N3CCC(CN4CCC(COc5ccc(Nc6cc(-n7nc(C(F)(F)F)c8c7CC(C)(C)CC8=O)ccc6C(N)=O)cc5)CC4)CC3)CC2)ccc1Nc1ncc2c(n1)N(S(C)(=O)=O)c1ccccc1C(=O)N2C` [Compound 137, 4-(6,6-dimethyl-4-oxo-3-(trifluoromethyl)-4,5,6,7-tetrahydro-1H-indazol-1-yl)-2-((4-((1-((1-(1-(3-ethoxy-4-((5-methyl-11-(methylsulfonyl)-6-oxo-6,11-dihydro-5H-benzo[e]pyrimido[5,4-b][1,4]diazepin-2-yl)amino)phenyl)piperidine-4-carbonyl)piperidin-4-yl)methyl)piperidin-4yl)methoxy)phenyl)amino)benzamide], for which the IC50 at HSP90α protein was more than 1 µM. Moreover, the EC50 in assay [2] is 0.1 to 1 µM.
As to `CCOc1cc(N2CCC(C(=O)N3CCC(CN4CCN(CCOc5ccc(Nc6cc(-n7nc(C(F)(F)F)c8c7CC(C)(C)CC8=O)ccc6C(N)=O)cc5)CC4)CC3)CC2)ccc1Nc1ncc2c(n1)N(S(C)(=O)=O)c1ccccc1C(=O)N2C` [Compound 138, 4-(6,6-dimethyl-4-oxo-3-(trifluoromethyl)-4,5,6,7-tetrahydro-1H-indazol-1-yl)-2-((4-(2-(4-((1-(1-(3-ethoxy-4-((5-methyl-11-(methylsulfonyl)-6-oxo-6,11-dihydro-5H-benzo[e]pyrimido[5,4-b][1,4]diazepin-2-yl)amino)phenyl)piperidine-4-carbonyl)piperidin-4-yl)methyl)piperazin-1-yl)ethoxy)phenyl)amino)benzamide], the IC50 at HSP90α protein was more than 1 µM. The compound also registered an EC50 in assay [2] of 0.1 to 1 µM.
For `CCOc1cc(N2CCC(C(=O)NCCOCCOCCOc3ccc(Nc4cc(-n5nc(C(F)(F)F)c6c5CC(C)(C)CC6=O)ccc4C(N)=O)cc3)CC2)ccc1Nc1ncc2c(n1)N(S(C)(=O)=O)c1ccccc1C(=O)N2C` [Compound 139, N-(2-(2-(2-(4-((2-carbamoyl-5-(6,6-dimethyl-4-oxo-3-(trifluoromethyl)-4,5,6,7-tetrahydro-1H-indazol-1-yl)phenyl)amino)phenoxy)ethoxy)ethoxy)ethyl)-1-(3-ethoxy-4-((5-methyl-11-(methylsulfonyl)-6-oxo-6,11-dihydro-5H-benzo[e]pyrimido[5,4-b][1,4]diazepin-2-yl)amino)phenyl)piperidine-4-carboxamide], in that order: more than 1 µM and 0.1 to 1 µM.
For `CCOc1cc(N2CCC(C(=O)NCCOCCOCCOCCOc3ccc(Nc4cc(-n5nc(C(F)(F)F)c6c5CC(C)(C)CC6=O)ccc4C(N)=O)cc3)CC2)ccc1Nc1ncc2c(n1)N(S(C)(=O)=O)c1ccccc1C(=O)N2C` [Compound 140, N-(2-(2-(2-(2-(4-((2-carbamoyl-5-(6,6-dimethyl-4-oxo-3-(trifluoromethyl)-4,5,6,7-tetrahydro-1H-indazol-1-yl)phenyl)amino)phenoxy)ethoxy)ethoxy)ethoxy)ethyl)-1-(3-ethoxy-4-((5-methyl-11-(methylsulfonyl)-6-oxo-6,11-dihydro-5H-benzo[e]pyrimido[5,4-b][1,4]diazepin-2-yl)amino)phenyl)piperidine-4-carboxamide] the same measures were more than 1 µM and 0.1 to 1 µM.
Regarding `CCOc1cc(N2CCC(CN3CCN(Cc4ccc(-n5c(C(=O)NC(C)C(F)(F)F)nnc5-c5cc(CC)c(O)cc5O)cc4)CC3)CC2)ccc1Nc1ncc2c(n1)N(S(C)(=O)=O)c1ccccc1C(=O)N2C` (stereo not shown) [Compound 185, 4-(4-((4-((1-(3-ethoxy-4-((5-methyl-11-(methylsulfonyl)-6-oxo-6,11-dihydro-5H-benzo[e]pyrimido[5,4-b][1,4]diazepin-2-yl)amino)phenyl)piperidin-4-yl)methyl)piperazin-1-yl)methyl)phenyl)-5-(5-ethyl-2,4-dihydroxyphenyl)-N-(1,1,1-trifluoropropan-2-yl)-4H-1,2,4-triazole-3-carboxamide], the EC50 in assay [1] was 0.1 to 1 µM; in assay [2] it was less than 0.1 µM.
For `CCOc1cc(N2CCC(CN3CCN(Cc4ccc(-n5c(C(=O)NC(C)C(F)(F)F)nnc5-c5cc(CC)c(O)cc5O)cc4)CC3)CC2)ccc1Nc1ncc2c(n1)N(C1CCCC1)c1ccccc1C(=O)N2C` (stereo not shown) [Compound 186, 4-(4-((4-((1-(4-((11-cyclopentyl-5-methyl-6-oxo-6,11-dihydro-5H-benzo[e]pyrimido[5,4-b][1,4]diazepin-2-yl)amino)-3-ethoxyphenyl)piperidin-4-yl)methyl)piperazin-1-yl)methyl)phenyl)-5-(5-ethyl-2,4-dihydroxyphenyl)-N-(1,1,1-trifluoropropan-2-yl)-4H-1,2,4-triazole-3-carboxamide] the same measures were more than 1 µM and 0.1 to 1 µM.
For `CCOc1cc(N2CCC(CN3CCN(Cc4ccc(-n5c(O)nnc5-c5cc(C(C)C)c(O)cc5O)cc4)CC3)CC2)ccc1Nc1ncc2c(n1)N(S(C)(=O)=O)c1ccccc1C(=O)N2C` [Compound 187, 2-((4-(4-((4-(4-(3-(2,4-dihydroxy-5-isopropylphenyl)-5-hydroxy-4H-1,2,4-triazol-4-yl)benzyl)piperazin-1-yl)methyl)piperidin-1-yl)-2-ethoxyphenyl)amino)-5-methyl-11-(methylsulfonyl)-5,11-dihydro-6H-benzo[e]pyrimido[5,4-b][1,4]diazepin-6-one], in that order: less than 0.1 µM and less than 0.1 µM.
With `CCOc1cc(N2CCN(Cc3ccc(-n4c(O)nnc4-c4cc(C(C)C)c(O)cc4O)cc3)CC2)ccc1Nc1ncc2c(n1)N(C1CCCC1)c1ccccc1C(=O)N2C` [Compound 188, 11-cyclopentyl-2-((4-(4-(4-(3-(2,4-dihydroxy-5-isopropylphenyl)-5-hydroxy-4H-1,2,4-triazol-4-yl)benzyl)piperazin-1-yl)-2-ethoxyphenyl)amino)-5-methyl-5,11-dihydro-6H-benzo[e]pyrimido[5,4-b][1,4]diazepin-6-one], the EC50 was more than 1 µM in assay [1] and 0.1 to 1 µM in assay [2].
For `CCNC(=O)c1nnc(-c2cc(C(C)C)c(O)cc2O)n1-c1ccc(CN2CCN(c3ccc(Nc4ncc5c(n4)N(C4CCCC4)c4ccccc4C(=O)N5C)c(OCC)c3)CC2)cc1` [Compound 190, 4-(4-((4-(4-((11-cyclopentyl-5-methyl-6-oxo-6,11-dihydro-5H-benzo[e]pyrimido[5,4-b][1,4]diazepin-2-yl)amino)-3-ethoxyphenyl)piperazin-1-yl)methyl)phenyl)-5-(2,4-dihydroxy-5-isopropylphenyl)-N-ethyl-4H-1,2,4-triazole-3-carboxamide], in that order: 0.1 to 1 µM and 0.1 to 1 µM.
For `CCOc1cc(CN2CCC(CN3CCN(Cc4ccc(-n5c(C(=O)NCC(F)(F)F)nnc5-c5cc(C(C)C)c(O)cc5O)cc4)CC3)CC2)ccc1Nc1ncc2c(n1)N(S(C)(=O)=O)c1ccccc1C(=O)N2C` [Compound 191, 5-(2,4-dihydroxy-5-isopropylphenyl)-4-(4-((4-((1-(3-ethoxy-4-((5-methyl-11-(methylsulfonyl)-6-oxo-6,11-dihydro-5H-benzo[e]pyrimido[5,4-b][1,4]diazepin-2-yl)amino)benzyl)piperidin-4-yl)methyl)piperazin-1-yl)methyl)phenyl)-N-(2,2,2-trifluoroethyl)-4H-1,2,4-triazole-3-carboxamide] the same measures were less than 0.1 µM and less than 0.1 µM.
